One assay deals with Langendorff-Herz. Description: Langendorff heart in vitro (isolated perfused, freely beating heart; inotropy, chronotropy, coronary flow). The following applies: for activation at 10000 µM / activation: 0,1 ml of a 10⁻² molar stock solution into the aorta; for activation at 10000 µM: read-out: Erhöhung der Inotropie; for activation: read-out: Erhöhung des Koronardurchflusses. Details: species or system Meerschweinchen; activation: dose or concentration left out as unconfirmed. On the procedure: Für die Versuche wurden männliche Meerschweinchen mit einer, Körpermasse von 300-350 g eingesetzt. An isolierten, mit carbogenbegaster Tyrodelösung von 37 °C durchströmten, frei schlagenden Herzen, wurden unter konstantem Druck die Kontraktionskraft (Inotropie), die Frequenz (Chronotropie) und der Koronardurchfluß unter dem Einfluß der 3-Cyan-2-(heteroalkyl-1-hetero)-5-(pyrid-4-yl)-pyridine der Formel I untersucht. Dazu wurden jeweils 0,1 ml der entsprechend molaren Substanzlösungen als Bolus direkt in den Aortenstumpf appliziert. Die 3-Cyan-2-(heteraalkyl-1-hetera)-5-(pyrid-4-yl)-pyridine zeigten eine teilweise starke und konzentrationsabhängige positiv inotrope und koronardilatatorische Wirkung. Die positiv chronotrope Wirkung war deutlich geringer, ausgeprägt. Beispielsweise zeigen die Verbindungen der Beispiele 1.2, 1.6, 1.7 und 1.8 eine Erhöhung der Inotropie um 30 % bei Applikation von je 0,1 ml einer 3,0 · 10⁻³, 2,2 · 10⁻², 2,0 · 10⁻⁴ bzw. 1,0 · 10⁻³ molaren Lösung und eine Erhöhung des Koronardurchflusses um 100 % bei Applikation von je 0,1 ml einer 6,0 · 10⁻³, 6,5 · 10⁻², 1,1 · 10⁻² bzw. 1,3 · 10⁻² molaren Lösung. Die Verbindungen der Beispiele 2.2, 2.3 und 2.4 weisen bei Applikation von je 0,1 ml einer 10⁻² molaren Stammlösung in die Aorta eine Erhöhung der Inotropie um 51 %, 38 % und 31 % sowie eine Erhöhung des Koronardurchflusses um 59 %, 99 % bzw. 88 % auf.

Another assay relates to Meerschweinchen. Description: Inhalative histamine bronchospasm, oral administration. The following applies: Cavia porcellus, 1 h, 60 min before inhaled 0,1 % histamine, 10 animals per dose, read-out: ED₅₀-Werte (Schutz vor Histamin-Bronchialkonstriktionen). The class given is in vivo. On the procedure:
Eine, in einem Ultraschallverdampfer vernebelte 0,1 %ige Histaminlösung induziert an männlichen Meerschweinchen (Körpermasse 200-300 g) innerhalb von 2 bis 3 Min. typische Bronchialkonstriktionen. Durch orale Verabreichung geeigneter Dosen der 3-Cyan-2-(heteroalkyl-1-hetero)-pyridine der Formel I 60 Min. vor der inhalativen Histamingabe wurden die Tiere innerhalb einer festgelegten Expositionszeit vor den durch Histamin verursachten Bronchialkonstriktionen geschützt. Für die Derivate von Beispiel 1.2, 1.6, 1.7 und 1.8 ergeben sich z.B. aus je 10 Tieren pro Dosis ED₅₀-Werte von 4,3 · 10⁻⁴, 6,0 · 10⁻⁴, 3,3 · 10⁻⁴ sowie 2,5 · 10⁻⁴ mol/kg, was auf deutliche bronchodilatatorische bzw. antiallergische Wirkungen hinweist.

In assay [1] the test system is Samenleiter von Meerschweinchen. The experiment in a line: Noradrenaline antagonism in vitro (noradrenaline contraction of isolated vas deferens). The following applies: Cavia porcellus; compound given 1 min before submaximal noradrenaline concentration; read-out: ED₅₀-Werte (Hemmung der Noradrenalinkontraktion). On the procedure: Die in Warmblüterphosphattyrode präparierten Samenleiter von Meerschweinchen (ca. 400 g Körpermasse) wurden 60 Min. im Organbad adaptiert. Anschließend wurden die Kontraktionen unter Gabe von Noradrenalin isotonisch registriert. Die 3-Cyan-2-(heteroalkyl-1-hetero)-pyridine der Formel I wurden 1 Min vor den jeweils submaximal reagierenden Noradrenalinkonzentrationen in das Organbad appliziert. […] Für die Verbindungen von Beispiel 1.2, 1.6, 1.7 und 1.8 ergaben sich beispielsweise ED₅₀-Werte von 2,2 · 10⁻⁵, 1,6 · 10⁻⁴, 2,5 · 10⁻⁴ sowie 1,3 · 10⁻⁴ mol/l.

For another assay, the system named is Narkotisierter Hund. Description: Anaesthetised dog i.v. (left ventricular pressure dp/dtmax, arterial pressure). It counts as in vivo, Bastardhunden. The following applies: for Steigerungen des Kontraktilitätsparameters dp/dtmax: result in words; for ED10 / ED50: Canis lupus familiaris, iv; for ED10: read-out: 10%ige Senkung des diastolischen Blutdruckes bei einer Dosis von; for ED50: read-out: 50%ige Steigerung des Kontraktilitätsparameters dp/dtmax bei einer Dosis von. The source says:
Die Untersuchungen wurden an Bastardhunden in Chloralose-Urethan-Narkose bei Prämedikation mit Morphinhydrochlorid unter spontaner Atmung durchgeführt. . Der linksventrikuläre Druck wurde mittels Tipmanometer und der arterielle Druck wurde über Herzkatheter via A. brachialis gemessen [vgl. K. Femmer et al., Pharmazie 30 642 (1975)]. Unter dem Einfluß der 3-Cyan-2-(heteroalkyl-1-hetero)-pyridine der Formel I wurden eine dosisabhängige beträchtliche. Steigerung der Kontraktionskraft des Herzens sowie teilweise eine signifikante Senkung des peripheren Gesamtwiderstandes beobachtet. So zeigen beispielsweise die Verbindungen von Beispiel 3.2, 4.1, 4.3 und 4.5 eine 50%ige Steigerung des Kontraktilitätsparameters dp/dtmax bei einer Dosis von 6,1 · 10⁻⁶, 1,4 · 10⁻⁶, 2,5 · 10⁻⁶ bzw. 2.0 · 10⁻⁶ mol/kg sowie eine 10%ige Senkung des diastolischen Blutdruckes als relevantes Maß einer Abnahme des peripheren Gesamtwiderstandes bei einer Dosis von 2,1 · 10⁻⁶, 1,6 · 10⁻⁶,1,6 · 10⁻⁶ bzw. 1,2 · 10⁻⁶ mol/kg. Die Verbindung von Beispiel 2.1 zeigt bei einer Dosis von 5 mg/kg eine Steigerung von dp/dtmax um 126 % Für die Verbindung von Beispiel 2.1 wurde bei einer Dosis von 5 mg/kg eine Senkung des diastolischen Blutdruckes um 37 % gefunden.

Assay [2] has as its system Isolierter, spontanaktiver Vorhof des Meerschweinchens. The experiment in a line: Isolated, spontaneously active atrium (inotropy and frequency). Details: species or system Meerschweinchen. The note with it: for EC30: Tyrode solution according to A.A. Alousi et al., 32 °C, read-out: 30%ige Steigerung der Inotropie bei Konzentrationen von; for positiv inotrope Wirkung / chronotrope Wirkung: result in words. How it is done: Für die Versuche wurden männliche Meerschweinchen mit einer Körpermasse von 400-500 g verwendet. Am isolierten, spontanaktiven Vorhof erfolgte nach einer 60 Min. währenden Adaptationszeit der Organpräparate in 32 °C temperierter carbogen-durchperlter Tyrodelösung die Untersuchung der Beeinflussung von Inotropie und Frequenz unter Einwirkung der 3-Cyan-2-(heteroalkyl-1-hetero)-pyridine der Formel I. Eine Reihe von Verbindungen zeigte eine starke und dosisabhängige positiv inotrope Wirkung. Bei Verwendung einer Tyrodelösung nach A.A. Alousi et al. [Circ. Res. 45, 666 (1979)] zeigen beispielsweise die Verbindungen von Beispiel 1.2, 1.7, 1.27, 3.3, 3.4, 3.5, 4.1 bzw. 4.3 eine 30%ige Steigerung der Inotropie bei Konzentrationen von 5,6 · 10⁻⁵, 5,4 · 10⁻⁶, 5,0 · 10⁻⁵, 5,8 · 10⁻⁵, 9,1 · 10⁻⁵, 1,6 · 10⁻⁴, 3,5 · 10⁻⁵ und 5,4 · 10⁻⁵ mol/l. Die Verbindung von Beispiel 1.27 zeigt bei einer Konzentration von 5 · 10⁻⁵ mol/l eine Abnahme der Frequenz um 15 %. Die Verbindung von Beispiel 1.8 zeigt bei Verwendung einer Tyrodelösung mit der Zusammensetzung (mmol/l): NaCl 136,9; KCl 2,7; CaCl₂ 1,8; MgCl₂ 1,0; NaHCO₃ 11,9; NaH₂PO₄ 0,4; Glucose 16,5 eine 30%ige Steigerung der Inotropie bei einer Konzentration von 1,2 · 10⁻⁴ mol/l.

With `N#Cc1cc(-c2ccncc2)cnc1N(CCO)CCO` [Beispiel 1.6, 2-[Bis-(2-hydroxy-ethyl)-amino]-3-cyan-5-(pyrid-4-yl)-pyridin], in the assay with Langendorff-Herz (molarity of solution, 0,1 ml bolus into aortic stump, giving 30 % increase of inotropy, read-out: Erhöhung der Inotropie um 30 % bei Applikation von je 0,1 ml einer ... molaren Lösung), the EC30 was determined as 22000 µM. Further, the EC100 in the assay with Langendorff-Herz (molarity of solution, 0,1 ml bolus, giving 100 % increase of coronary flow, read-out: Erhöhung des Koronardurchflusses um 100 % bei Applikation von je 0,1 ml einer ... molaren Lösung) worked out at 65000 µM. In the assay with Meerschweinchen, the ED50 worked out at 600 µmol/kg. In addition, in assay [1], the IC50 worked out at 160 µM.
Regarding `Cc1nc(N2CCOCC2)c(C#N)cc1-c1ccccc1` [3-Cyan-6-methyl-2-morpholino-5-phenyl-pyridin], the “Steigerungen des Kontraktilitätsparameters dp/dtmax” value with Narkotisierter Hund was “dosisabhängige beträchtliche Steigerungen”.
With `Cc1nc(NCCO)c(C#N)cc1-c1ccncc1` [Beispiel 3.3, 3-Cyan-2-(2-hydroxy-ethylamino)-6-methyl-5-(pyrid-4-yl)-pyridin], in assay [2], the EC30 came to 58 µM and the “positiv inotrope Wirkung” value is reported as “gute und dosisabhängige positiv inotrope Wirkung”.
Regarding `Cc1nc(NCC(C)O)c(C#N)cc1-c1ccncc1` (stereo not shown) [Beispiel 3.5, 3-Cyan-2-(2-hydroxy-propylamino)-6-methyl-5-(pyrid-4-yl)-pyridin], in assay [2], the EC30 was determined as 160 µM.
As for `Cc1nc(N2CCOCC2)c(C#N)cc1-c1ccncc1` [Beispiel 3.2, 3-Cyan-6-methyl-2-morpholino-5-(pyrid-4-yl)-pyridin], in the assay on Narkotisierter Hund, the ED10 was found to be 2.1 µmol/kg, the ED50 stood at 6.1 µmol/kg and the “Steigerungen des Kontraktilitätsparameters dp/dtmax” value is reported as “dosisabhängige beträchtliche Steigerungen”.
Turning to `COCCOc1ncc(-c2ccncc2)cc1C#N` [Beispiel 2.1, 3-Cyan-2-(2-methoxy-ethoxy)-5-(pyrid-4-yl)-pyridin], in the assay with Narkotisierter Hund (dose 5 mg/kg), the “Senkung des diastolischen Blutdruckes” value was determined as 37% and the Steigerung von dp/dtmax came to 126%.
Take `N#Cc1cc(-c2ccncc2)cnc1OCCCO` [Beispiel 2.3, 3-Cyan-2-(3-hydroxy-propoxy)-5-(pyrid-4-yl)-pyridin]: in the assay on Langendorff-Herz, the activation at 10000 µM came to 38% and the activation was determined as 99%.
Take `CC(O)COc1ncc(-c2ccncc2)cc1C#N` (stereo not shown) [Beispiel 2.4, 3-Cyan-2-(2-hydroxy-propoxy)-5-(pyrid-4-yl)-pyridin]: in the assay on Langendorff-Herz, the activation at 10000 µM was 31% and the activation stood at 88%.
As for `CC(=O)OCCNc1ncc(-c2ccncc2)cc1C#N` [Beispiel 4.1, 2-(2-Acetoxy-ethylamino)-3-cyan-5-(pyrid-4-yl)-pyridin], in assay [2], the EC30 stood at 35 µM and the “positiv inotrope Wirkung” value was “gute und dosisabhängige positiv inotrope Wirkung”. Besides, in the assay with Narkotisierter Hund, the ED10 came to 1.6 µmol/kg, the ED50 was found to be 1.4 µmol/kg and the “Steigerungen des Kontraktilitätsparameters dp/dtmax” value is on record as “dosisabhängige beträchtliche Steigerungen”.
`N#Cc1cc(-c2ccncc2)cnc1OCCO` [Beispiel 2.2, 3-Cyan-2-(2-hydroxy-ethoxy-)-5-(pyrid-4-yl)-pyridin]: in the assay on Langendorff-Herz, the activation at 10000 µM came out at 51% and the activation was found to be 59%. Moreover, in the assay on Langendorff-Herz (result in words), the “positiv chronotrope Wirkung” value is “relative geringer positiv chronotroper Aktivität” and the “positiv inotrope Wirkung” value is reported as “ausgeprägte und dosisabhängige positiv inotrope Wirkung”. For the same compound, in assay [2], the “chronotrope Wirkung” value is given as “relative geringer positiv chronotroper Aktivität” and the “positiv inotrope Wirkung” value is listed as “ausgeprägte und dosisabhängige positiv inotrope Wirkung”.
In the case of `Cc1nc(NCCCO)c(C#N)cc1-c1ccncc1` [Beispiel 3.4, 3-Cyan-2-(3-hydroxy-propylamino)-6-methyl-5-(pyrid-4-yl)-pyridin], in assay [2], the EC30 worked out at 91 µM and the “positiv inotrope Wirkung” value is recorded as “gute und dosisabhängige positiv inotrope Wirkung”.
As to `CCC(=O)OCCNc1ncc(-c2ccncc2)cc1C#N` [Beispiel 4.5, 3-Cyan-2-(2-propionyloxy-ethylamino)-5-(pyrid-4-yl)-pyridin], in the assay with Narkotisierter Hund, the ED10 was found to be 1.2 µmol/kg, the ED50 amounted to 2 µmol/kg and the “Steigerungen des Kontraktilitätsparameters dp/dtmax” value is listed as “dosisabhängige beträchtliche Steigerungen”.
Take `N#Cc1cc(-c2ccncc2)cnc1N1CCN(C(=O)c2ccco2)CC1` [Beispiel 1.27, 3-Cyan-2-[4-(furan-2-yl-carbonyl)-piperazino]-5-(pyrid-4-yl)-pyridin]: the inhibition at 50 µM in assay [2] (Cavia porcellus, at a concentration of 5 · 10⁻⁵ mol/l, read-out: Abnahme der Frequenz) came out at 15%. Further, in assay [2], the EC30 came out at 50 µM, the “chronotrope Wirkung” value is recorded as “negativ chronotroper Wirkung” and the “positiv inotrope Wirkung” value was “gute positiv inotrope Wirkung”.
With `CC(=O)OCCOc1ncc(-c2ccncc2)cc1C#N` [Beispiel 4.3, 2-(2-Acetoxy-ethoxy)-3-cyan-5-(pyrid-4-yl)-pyridin], in assay [2], the EC30 was determined as 54 µM and the “positiv inotrope Wirkung” value is on record as “gute und dosisabhängige positiv inotrope Wirkung”. Besides, in the assay with Narkotisierter Hund, the ED10 is 1.6 µmol/kg, the ED50 amounted to 2.5 µmol/kg and the “Steigerungen des Kontraktilitätsparameters dp/dtmax” value is on record as “dosisabhängige beträchtliche Steigerungen”.
For the compound `COc1ccc(-c2cc(C#N)c(N3CCOCC3)nc2C)cc1OC` [3-Cyan-5-(3,4-dimethoxy-phenyl)-6-methyl-2-morpholino-pyridin], in the assay with Narkotisierter Hund, the “Steigerungen des Kontraktilitätsparameters dp/dtmax” value is “dosisabhängige beträchtliche Steigerungen”.
